Assay results reported in the kinase profiling compilation of Christmann-Franck et al. (2016).

Experiments:
Assay in all cases: radiometric filter-binding kinase assay
MST4 (human) = MST4 (human) (UniProt Q9P289)
RPS6KA1 KD1 KD2 (human) = RPS6KA1 KD1 KD2 (human) (UniProt Q15418)
NEK2 (human) = NEK2 (human) (UniProt P51955)
MAPK13 (human) = MAPK13 (human) (UniProt O15264); conditions: compound 1.0 µM
BRSK2 (human) = BRSK2 (human) (UniProt Q8IWQ3)
EPHB3 (human) = EPHB3 (human) (UniProt P54753)
MAPK10 (human) = MAPK10 (human) (UniProt P53779)
MAPK8 (human) = MAPK8 (human) (UniProt P45983)
DYRK2 (human) = DYRK2 (human) (UniProt Q92630)
AURKA (human) = AURKA (human) (UniProt O14965)
MKNK1 (human) = MKNK1 (human) (UniProt Q9BUB5)
MAP3K11 (human) = MAP3K11 (human) (UniProt Q16584)
MAPK1 (human) = MAPK1 (human) (UniProt P28482)
CaMK1 (human) = CaMK1 (human) (UniProt Q14012)
DYRK1A (human) = DYRK1A (human) (UniProt Q13627)
MAPKAPK3 (human) = MAPKAPK3 (human) (UniProt Q16644)
MARK2 (human) = MARK2 (human) (UniProt Q7KZI7)
MAPK12 (human) = MAPK12 (human) (UniProt P53778)
[1] = system: SGK1 (human), O00141 [S422D]
PAK4 (human) = PAK4 (human) (UniProt O96013)
MAPK3 (human) = MAPK3 (human) (UniProt P27361)
PRKAA1 or PRKAA2 (rat) = conditions: accession and sequence are those of the human protein
HIPK2 (human) = HIPK2 (human) (UniProt Q9H2X6)
PLK1 (human) = PLK1 (human) (UniProt P53350)
IKBKE (human) = IKBKE (human) (UniProt Q14164)
PRKACA (human) = PRKACA (human) (UniProt P17612)
EPHB2 (human) = EPHB2 (human) (UniProt P29323)
SYK (human) = SYK (human) (UniProt P43405)
CHEK2 (human) = CHEK2 (human) (UniProt O96017)
ERBB4 (human) = ERBB4 (human) (UniProt Q15303)
PAK7 (human) = PAK7 (human) (UniProt Q9P286)
NUAK1 (human) = NUAK1 (human) (UniProt O60285)
[2] = system: AKT1 (human), P31749 [S473D]
PRKCA (human) = PRKCA (human) (UniProt P17252)

Sequence of MAPK1 (human) (P28482 whole entry, looked up): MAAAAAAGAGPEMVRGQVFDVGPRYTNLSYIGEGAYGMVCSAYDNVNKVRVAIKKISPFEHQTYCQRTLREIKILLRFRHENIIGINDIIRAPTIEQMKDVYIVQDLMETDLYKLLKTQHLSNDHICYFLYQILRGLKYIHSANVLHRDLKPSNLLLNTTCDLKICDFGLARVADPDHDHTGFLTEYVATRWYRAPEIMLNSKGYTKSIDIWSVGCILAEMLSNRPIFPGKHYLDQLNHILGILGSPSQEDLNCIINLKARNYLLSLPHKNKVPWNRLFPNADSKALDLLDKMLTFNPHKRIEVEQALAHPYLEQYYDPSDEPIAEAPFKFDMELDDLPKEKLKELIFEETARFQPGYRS
Sequence of SGK1 (human), O00141 [S422D] (O00141 whole entry S422D, looked up): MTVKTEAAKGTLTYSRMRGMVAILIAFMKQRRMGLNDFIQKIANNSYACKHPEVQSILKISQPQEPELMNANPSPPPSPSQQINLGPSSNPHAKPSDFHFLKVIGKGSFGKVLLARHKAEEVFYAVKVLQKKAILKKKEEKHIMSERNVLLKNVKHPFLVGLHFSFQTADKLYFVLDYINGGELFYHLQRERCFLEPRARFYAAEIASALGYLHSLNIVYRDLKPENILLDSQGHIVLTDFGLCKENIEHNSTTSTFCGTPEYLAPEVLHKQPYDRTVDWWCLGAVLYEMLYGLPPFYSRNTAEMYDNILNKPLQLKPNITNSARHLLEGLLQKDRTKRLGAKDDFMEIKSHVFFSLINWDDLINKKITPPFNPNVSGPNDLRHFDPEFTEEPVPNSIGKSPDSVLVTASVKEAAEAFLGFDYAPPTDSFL
Sequence of MAPK12 (human) (P53778 whole entry, looked up): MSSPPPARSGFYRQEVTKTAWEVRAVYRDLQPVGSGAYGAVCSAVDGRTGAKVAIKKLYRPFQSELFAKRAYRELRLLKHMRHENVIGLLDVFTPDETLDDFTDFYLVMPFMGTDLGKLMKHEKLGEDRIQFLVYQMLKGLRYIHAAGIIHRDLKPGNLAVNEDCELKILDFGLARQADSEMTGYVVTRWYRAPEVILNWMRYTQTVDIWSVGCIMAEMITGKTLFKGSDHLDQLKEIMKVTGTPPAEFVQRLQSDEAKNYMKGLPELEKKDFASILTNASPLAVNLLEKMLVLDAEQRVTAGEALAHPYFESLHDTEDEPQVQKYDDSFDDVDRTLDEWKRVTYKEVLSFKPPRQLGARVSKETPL
Sequence of NUAK1 (human) (O60285 whole entry, looked up): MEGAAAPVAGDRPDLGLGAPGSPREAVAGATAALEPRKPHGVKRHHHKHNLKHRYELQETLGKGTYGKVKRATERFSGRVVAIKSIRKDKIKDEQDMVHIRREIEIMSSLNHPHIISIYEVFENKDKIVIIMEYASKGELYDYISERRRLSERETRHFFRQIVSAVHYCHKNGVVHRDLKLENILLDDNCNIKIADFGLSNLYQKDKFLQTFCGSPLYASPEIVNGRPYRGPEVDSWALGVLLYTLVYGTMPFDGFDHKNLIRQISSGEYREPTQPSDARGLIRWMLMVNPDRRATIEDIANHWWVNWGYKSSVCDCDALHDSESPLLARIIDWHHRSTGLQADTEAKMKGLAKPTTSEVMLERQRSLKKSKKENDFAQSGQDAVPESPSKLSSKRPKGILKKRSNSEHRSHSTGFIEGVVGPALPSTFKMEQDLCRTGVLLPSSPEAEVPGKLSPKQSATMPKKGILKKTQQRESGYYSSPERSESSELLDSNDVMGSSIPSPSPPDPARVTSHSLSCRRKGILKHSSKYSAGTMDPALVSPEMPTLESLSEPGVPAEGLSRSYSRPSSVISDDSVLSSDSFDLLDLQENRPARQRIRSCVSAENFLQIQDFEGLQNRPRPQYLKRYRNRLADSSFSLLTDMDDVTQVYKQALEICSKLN
Sequence of MAPKAPK3 (human) (Q16644 whole entry, looked up): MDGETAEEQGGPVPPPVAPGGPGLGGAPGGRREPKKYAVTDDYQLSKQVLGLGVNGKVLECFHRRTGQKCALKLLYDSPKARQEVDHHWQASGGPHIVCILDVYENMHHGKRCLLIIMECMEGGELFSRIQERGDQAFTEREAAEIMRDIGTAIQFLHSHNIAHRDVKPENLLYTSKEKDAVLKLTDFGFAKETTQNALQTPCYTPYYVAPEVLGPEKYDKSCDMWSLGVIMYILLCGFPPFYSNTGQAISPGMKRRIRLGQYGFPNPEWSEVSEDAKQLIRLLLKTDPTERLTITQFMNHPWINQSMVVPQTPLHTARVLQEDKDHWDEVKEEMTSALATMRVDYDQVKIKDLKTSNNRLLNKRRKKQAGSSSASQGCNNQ
Sequence of MARK2 (human) (Q7KZI7 whole entry, looked up): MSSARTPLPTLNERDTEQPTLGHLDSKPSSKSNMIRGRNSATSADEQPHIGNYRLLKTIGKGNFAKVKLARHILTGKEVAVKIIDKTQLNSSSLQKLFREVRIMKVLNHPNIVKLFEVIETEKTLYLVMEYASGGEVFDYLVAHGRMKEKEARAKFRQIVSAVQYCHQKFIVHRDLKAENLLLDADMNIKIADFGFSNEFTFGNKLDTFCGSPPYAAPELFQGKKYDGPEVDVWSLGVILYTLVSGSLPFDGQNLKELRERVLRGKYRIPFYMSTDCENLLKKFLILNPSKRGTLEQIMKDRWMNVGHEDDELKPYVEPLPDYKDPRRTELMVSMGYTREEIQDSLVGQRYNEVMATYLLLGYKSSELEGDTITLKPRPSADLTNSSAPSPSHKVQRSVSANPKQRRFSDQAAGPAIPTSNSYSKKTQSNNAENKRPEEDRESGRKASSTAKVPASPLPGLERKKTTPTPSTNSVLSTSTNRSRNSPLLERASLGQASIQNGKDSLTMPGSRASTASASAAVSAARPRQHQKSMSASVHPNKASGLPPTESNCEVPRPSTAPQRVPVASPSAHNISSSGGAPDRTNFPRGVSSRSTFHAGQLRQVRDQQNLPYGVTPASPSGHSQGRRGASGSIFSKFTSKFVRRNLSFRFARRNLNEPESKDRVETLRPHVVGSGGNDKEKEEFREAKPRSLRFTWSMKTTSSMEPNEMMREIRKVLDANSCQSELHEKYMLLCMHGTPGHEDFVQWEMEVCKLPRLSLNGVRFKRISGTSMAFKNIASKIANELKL
Sequence of MKNK1 (human) (Q9BUB5 whole entry, looked up): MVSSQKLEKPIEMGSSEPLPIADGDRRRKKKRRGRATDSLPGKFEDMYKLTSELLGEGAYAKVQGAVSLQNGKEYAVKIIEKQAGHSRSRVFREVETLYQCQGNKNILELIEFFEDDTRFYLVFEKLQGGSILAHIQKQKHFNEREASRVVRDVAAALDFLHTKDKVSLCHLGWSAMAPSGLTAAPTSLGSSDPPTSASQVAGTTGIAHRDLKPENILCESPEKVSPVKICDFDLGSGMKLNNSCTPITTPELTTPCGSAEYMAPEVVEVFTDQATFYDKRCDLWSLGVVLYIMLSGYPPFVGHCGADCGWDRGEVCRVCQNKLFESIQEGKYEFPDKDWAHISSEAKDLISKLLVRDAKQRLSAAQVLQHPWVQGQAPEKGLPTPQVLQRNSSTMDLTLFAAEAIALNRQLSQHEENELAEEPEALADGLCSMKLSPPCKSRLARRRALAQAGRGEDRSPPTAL
Sequence of ERBB4 (human) (Q15303 whole entry, looked up): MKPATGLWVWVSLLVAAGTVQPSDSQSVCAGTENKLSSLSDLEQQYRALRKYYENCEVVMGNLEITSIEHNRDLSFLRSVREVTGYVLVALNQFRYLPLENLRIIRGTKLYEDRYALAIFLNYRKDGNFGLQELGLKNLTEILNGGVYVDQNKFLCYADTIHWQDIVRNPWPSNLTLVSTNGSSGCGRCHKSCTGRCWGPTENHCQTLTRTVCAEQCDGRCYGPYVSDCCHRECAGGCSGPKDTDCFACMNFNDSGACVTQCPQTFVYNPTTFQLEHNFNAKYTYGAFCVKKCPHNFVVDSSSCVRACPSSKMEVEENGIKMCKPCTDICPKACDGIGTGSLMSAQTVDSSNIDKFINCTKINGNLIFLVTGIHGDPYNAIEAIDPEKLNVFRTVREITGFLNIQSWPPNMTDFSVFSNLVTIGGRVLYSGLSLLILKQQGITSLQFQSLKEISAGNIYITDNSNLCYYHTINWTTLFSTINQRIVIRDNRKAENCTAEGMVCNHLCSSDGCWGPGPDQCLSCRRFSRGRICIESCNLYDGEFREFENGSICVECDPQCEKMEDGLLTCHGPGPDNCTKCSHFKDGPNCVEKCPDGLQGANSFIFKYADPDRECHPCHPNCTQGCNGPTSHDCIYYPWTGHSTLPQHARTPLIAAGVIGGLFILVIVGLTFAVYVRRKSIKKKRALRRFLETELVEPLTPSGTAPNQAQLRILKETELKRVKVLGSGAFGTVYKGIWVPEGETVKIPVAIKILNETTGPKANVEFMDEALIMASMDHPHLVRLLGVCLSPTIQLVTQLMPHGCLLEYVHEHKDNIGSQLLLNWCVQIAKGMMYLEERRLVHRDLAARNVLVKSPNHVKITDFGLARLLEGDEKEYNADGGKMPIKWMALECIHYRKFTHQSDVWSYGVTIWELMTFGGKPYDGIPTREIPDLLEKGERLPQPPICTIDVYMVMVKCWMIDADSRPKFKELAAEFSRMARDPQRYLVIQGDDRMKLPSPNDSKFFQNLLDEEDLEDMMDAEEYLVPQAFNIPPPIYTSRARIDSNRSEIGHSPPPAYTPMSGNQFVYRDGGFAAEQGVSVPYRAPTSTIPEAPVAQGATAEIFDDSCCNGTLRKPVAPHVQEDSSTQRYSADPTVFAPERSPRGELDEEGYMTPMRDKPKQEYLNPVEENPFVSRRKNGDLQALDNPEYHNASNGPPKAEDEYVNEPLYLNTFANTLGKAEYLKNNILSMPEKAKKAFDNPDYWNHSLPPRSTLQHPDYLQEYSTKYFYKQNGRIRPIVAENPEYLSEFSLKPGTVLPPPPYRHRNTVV

Cc1cccc(-c2nn(C(=S)Nc3ccccc3)cc2-c2ccnc3ccccc23)n1
residual activity (MST4 (human); compound 0.1 µM): 95% | residual activity (MST4 (human); compound 1.0 µM): 99% | residual activity (RPS6KA1 KD1 KD2 (human); compound 0.1 µM): 110% | residual activity (RPS6KA1 KD1 KD2 (human); compound 1.0 µM): 95% | residual activity (NEK2 (human); compound 0.1 µM): 109% | residual activity (NEK2 (human); compound 1.0 µM): 92% | residual activity (MAPK13 (human)): 94% | residual activity (BRSK2 (human); compound 0.1 µM): 117% | residual activity (BRSK2 (human); compound 1.0 µM): 92% | residual activity (EPHB3 (human); compound 0.1 µM): 112% | residual activity (EPHB3 (human); compound 1.0 µM): 104% | residual activity (MAPK10 (human); compound 0.1 µM): 119% | residual activity (MAPK10 (human); compound 1.0 µM): 99% | residual activity (MAPK8 (human); compound 0.1 µM): 111% | residual activity (MAPK8 (human); compound 1.0 µM): 101% | residual activity (DYRK2 (human); compound 0.1 µM): 100% | residual activity (DYRK2 (human); compound 1.0 µM): 95% | residual activity (AURKA (human); compound 0.1 µM): 120% | residual activity (AURKA (human); compound 1.0 µM): 107% | residual activity (MKNK1 (human); compound 0.1 µM): 103% | residual activity (MKNK1 (human); compound 1.0 µM): 93% | residual activity (MAP3K11 (human); compound 0.1 µM): 104% | residual activity (MAP3K11 (human); compound 1.0 µM): 107% | residual activity (MAPK1 (human); compound 0.1 µM): 104% | residual activity (MAPK1 (human); compound 1.0 µM): 94% | residual activity (CaMK1 (human); compound 0.1 µM): 103% | residual activity (CaMK1 (human); compound 1.0 µM): 107% | residual activity (DYRK1A (human); compound 0.1 µM): 109% | residual activity (DYRK1A (human); compound 1.0 µM): 104% | residual activity (MAPKAPK3 (human); compound 0.1 µM): 107% | residual activity (MAPKAPK3 (human); compound 1.0 µM): 97% | residual activity (MARK2 (human); compound 0.1 µM): 121% | residual activity (MARK2 (human); compound 1.0 µM): 110% | residual activity (MAPK12 (human); compound 0.1 µM): 102% | residual activity (MAPK12 (human); compound 1.0 µM): 88% | residual activity ([1]; compound 0.1 µM): 107% | residual activity ([1]; compound 1.0 µM): 103% | residual activity (PAK4 (human); compound 0.1 µM): 89% | residual activity (PAK4 (human); compound 1.0 µM): 93% | residual activity (MAPK3 (human); compound 0.1 µM): 105% | residual activity (MAPK3 (human); compound 1.0 µM): 100% | residual activity (PRKAA1 or PRKAA2 (rat); compound 0.1 µM): 99% | residual activity (PRKAA1 or PRKAA2 (rat); compound 1.0 µM): 82% | residual activity (HIPK2 (human); compound 0.1 µM): 104% | residual activity (HIPK2 (human); compound 1.0 µM): 95% | residual activity (PLK1 (human); compound 0.1 µM): 99% | residual activity (PLK1 (human); compound 1.0 µM): 106% | residual activity (IKBKE (human); compound 0.1 µM): 112% | residual activity (IKBKE (human); compound 1.0 µM): 106% | residual activity (PRKACA (human); compound 0.1 µM): 109% | residual activity (PRKACA (human); compound 1.0 µM): 99% | residual activity (EPHB2 (human); compound 0.1 µM): 113% | residual activity (EPHB2 (human); compound 1.0 µM): 95% | residual activity (SYK (human); compound 0.1 µM): 109% | residual activity (SYK (human); compound 1.0 µM): 106% | residual activity (CHEK2 (human); compound 0.1 µM): 115% | residual activity (CHEK2 (human); compound 1.0 µM): 110% | residual activity (ERBB4 (human); compound 0.1 µM): 104% | residual activity (ERBB4 (human); compound 1.0 µM): 82% | residual activity (PAK7 (human); compound 0.1 µM): 107% | residual activity (PAK7 (human); compound 1.0 µM): 102% | residual activity (NUAK1 (human); compound 0.1 µM): 96% | residual activity (NUAK1 (human); compound 1.0 µM): 84% | residual activity ([2]; compound 0.1 µM): 102% | residual activity ([2]; compound 1.0 µM): 106% | residual activity (PRKCA (human); compound 0.1 µM): 97% | residual activity (PRKCA (human); compound 1.0 µM): 102%
